Reference: US20220107328A1, “METHODS OF TREATING LIVER DISEASES” (Camp4 Therapeutics Corporation, priority 2018, published 2022)

Columns and labels:
[1] = test system: COL1A2 mRNA; assay: qRT-PCR of fibrosis related genes in stellate cells, COL1A2; format: cell-based, human; conditions: stellate cells P7, 0.5 μM, 18 hours
Method: (§1) Stellate cells P7 were treated with 0.5 μM of each of the indicated compounds for 18 hours. Cells were processed for RNA extraction and qRT-PCR as previously described. The assay was repeated in triplicate.

[2] = test system: TIM2 mRNA; assay: qRT-PCR of fibrosis related genes in stellate cells, TIM2; format: cell-based, human; conditions: stellate cells P7, 0.5 μM, 18 hours
Method: as §1

[3] = test system: ACTA2 mRNA; assay: qRT-PCR of fibrosis related genes in stellate cells, ACTA2; format: cell-based, human; conditions: stellate cells P7, 0.5 μM, 18 hours
Method: as §1

[4] = test system: COL1A1 mRNA in mouse liver; assay: In vivo compound testing in wild-type mice, liver COL1A1 mRNA; conditions: 50 mg/kg once daily, oral gavage, four days; GFAP as control
Method: A group of 6 mice (C57BL/6J strain), 3 male and 3 female, were administered with a candidate compound once daily via oral gavage for four consecutive days. Mice were sacrificed 4 hours post-last dose on the fourth day. Organs including liver, spleen, kidney, adipose, plasma were collected. Mouse liver tissues were pulverized in liquid nitrogen and aliquoted into small microtubes. TRIzol (Invitrogen Cat #15596026) was added to the tubes to facilitate cell lysis from tissue samples. The TRIzol solution containing the disrupted tissue was then centrifuged and the supernatant phase was collected. Total RNA was extracted from the supernatant using Qiagen RNA Extraction Kit (Qiagen Cat #74182) and the target mRNA levels were analyzed using qRT-PCR.
Candidate compounds were administered at an appropriate dose once daily to a group of wild-type mice consisting of 3 male and 3 female mice. Mice were sacrificed on the fourth day and liver tissue was collected and analyzed for PNPLA3 (or COL1A1) expression by qRT-PCR. […] When COL1A1 was analyzed, a stellate cell specific gene GFAP was used as a house-keeping control.

[5] = test system: COL1A1 mRNA; assay: qRT-PCR of COL1A1 mRNA in human primary hepatic stellate cells; format: cell-based; conditions: for Primary Stellate cells COL1A1 (fold change in mRNA expression): 3 μM, relative to GAPDH; for Relative mRNA COL1A1: stellate cells P7, 0.5 μM
[6] = test system: MMP2 mRNA; assay: qRT-PCR of fibrosis related genes in stellate cells, MMP2; format: cell-based, human; conditions: stellate cells P7, 0.5 μM, 18 hours
Method: as §1

[7] = test system: PNPLA3 expression; assay: RNA-seq of compound-treated primary human hepatocytes; format: cell-based
Method: Cryopreserved hepatocytes were cultured in plating media for 16 hours, transferred to maintenance media for 4 hours. Cultured on serum-free media for 2 hours, then a compound was added. The hepatocytes were maintained on the serum-free media for 16 hours prior to gene expression analysis.
Human hepatocytes cultured as described above were plated in 24-well format, adding 375,000 cells per well in a volume of 500 μl plating medium. Four hours before treatment, cells were washed with PBS and the medium was changed to either: fresh maintenance medium (complete) or modified maintenance medium.
Compound stocks were prepared at 1000× final concentration and added in a 2-step dilution to the medium to reduce risk of a compound precipitating out of solution when added to the cells, and to ensure reasonable pipetting volumes. One at a time, each compound was first diluted 10-fold in warm (about 37° C.) modified maintenance medium (initial dilution=ID), mixed by vortexing, and the ID was diluted 100-fold into the cell culture (e.g. 5.1 μl into 1 well of a 24-well plate containing 0.5 mL medium). The plate was mixed by carefully swirling and after all wells were treated and returned to the incubator overnight. If desired, separate plates/wells were treated with vehicle-only controls and/or positive controls. If using multi-well plates, controls were included on each plate. After about 18 hours, cells were harvested for further analysis, e.g., ChIP-seq, RNA-seq, ATAC-seq, etc.
The expression level of each gene was quantified with normalized FPKM (fragments per kilobase of exon per million mapped fragments). The differentially expressed genes were called using Cuffdiff v2.2.1 with q value<0.01 and log2 fold change>=1 or <=−1.
(§3) To identify small molecules that modulate PNPLA3, primary human hepatocytes were prepared as a monoculture, and at least one small molecule compound was applied to the cells.
(§4) RNA-seq was performed to determine the effects of the compounds on PNPLA3 expression in hepatocytes. Fold change was calculated by dividing the level of expression in the cell system that had been perturbed by the level of expression in an unperturbed system. Changes in expression having a p-value≤0.05 were considered significant.

[8] = test system: PCSK9 mRNA; assay: qRT-PCR of PCSK9 mRNA in primary hepatocytes; format: cell-based, human; conditions: donor 4178, 3 μM, relative to GUSB
[9] = test system: PNPLA3 mRNA; assay: qRT-PCR of PNPLA3 mRNA in compound-treated primary human hepatocytes; conditions: for Primary Hepatocytes 4178 PNPLA3 (fold change in mRNA expression): donor 4178, 3 μM; for Primary Hepatocytes 4178 PNPLA3 (fold change in mRNA expression) / Primary Hepatocytes 4282 PNPLA3 (fold change in mRNA expression): relative to GUSB; for Primary Hepatocytes 4282 PNPLA3 (fold change in mRNA expression): donor 4282, 3 μM; for PNPLA3 mRNA expression level over time (in words): 35 min to 20 hrs
[10] = test system: TGFB1 mRNA; assay: qRT-PCR of fibrosis related genes in stellate cells, TGFB1; format: cell-based, human; conditions: stellate cells P7, 0.5 μM, 18 hours
Method: as §1

[11] = test system: PNPLA3 mRNA; assay: qRT-PCR of PNPLA3 mRNA in human primary hepatic stellate cells; format: cell-based; conditions: for Primary Stellate cells PNPLA3 (fold change in mRNA expression): 3 μM, relative to GAPDH; for Relative mRNA PNPLA3: stellate cells P7, 0.5 μM
[12] = test system: mouse hepatocytes; assay: Cytotoxicity in mouse hepatocytes; format: cell-based; conditions: 10 μM
[13] = test system: phosphorylated NDRG1 (pNDRG1/NDRG1); assay: Western blot of phosphorylated NDRG1 in human hepatocytes; format: cell-based; conditions: 3 μM, mTORC2 pathway, time point not stated
Method: (§2) Levels of phosphorylated S6, AKT, and NDRG1 proteins were determined as compared to total S6, AKT, and NDRG1 protein. PNPLA3 mRNA expression was quantified and normalized to housekeeping gene GUSB.

[14] = test system: phosphorylated S6 (pS6/S6); assay: Western blot of phosphorylated S6 in human hepatocytes; format: cell-based; conditions: 3 μM
Method: as §2

[15] = test system: phosphorylated 4EBP1 (p4EBP1c (37/46)/4EBP1c); assay: Western blot of phosphorylated 4EBP1 in human hepatocytes; format: cell-based; conditions: 3 μM, mTORC1 pathway, time point not stated
[16] = test system: phosphorylated AKT (pAKT/AKT); assay: Western blot of phosphorylated AKT in human hepatocytes; format: cell-based; conditions: 3 μM
Method: as §2

[17] = test system: multiple human tumor cell types; conditions: combined with cytotoxic, hormonal, and targeted agents; cited from earlier work
[18] = test system: PNPLA5 expression; assay: RNA-seq of compound-treated primary human hepatocytes, PNPLA5; format: cell-based
Method: as §3, §4

[19] = test system: PNPLA3 mRNA; assay: qRT-PCR of PNPLA3 mRNA in compound-treated mouse hepatocytes; format: cell-based; conditions: mouse hepatocytes, 1 μM, normalized to ACTB
[20] = hepatic stellate cells, 0.01 μM
[21] = hepatic stellate cells, serial dilutions, 18 hours
[22] = 35 min to 20 hrs, relative to DMSO control

With CNC(=O)Nc1ccc(-c2nc(N3CC4CCC(C3)O4)c3cnn(C4CCC5(CC4)OCCO5)c3n2)cc1 [WYE-125132] the “Relative mRNA COL1A2” value [1] was 0.27 ± 0.00, the “Relative mRNA TIMP2” value [2] was 1.01 ± 0.07 and the “Relative mRNA ACTA2” value [3] was 0.54 ± 0.01. For the same molecule, the “COL1A1 expression in mouse liver (in words)” value [4] was “reduced COL1A1 expression in mouse liver”, the “Primary Stellate cells COL1A1 (fold change in mRNA expression)” value [5] was 0.46 and the “Relative COL1A1 mRNA levels RQ” value [5, 20] was 0.92. The “Relative COL1A1 mRNA levels RQ” value ([5]; hepatic stellate cells, 0.1 μM) was 0.42, the “Relative COL1A1 mRNA levels RQ” value ([5]; hepatic stellate cells, 1 μM) was 0.26 and the “Relative COL1A1 mRNA levels RQ” value ([5]; hepatic stellate cells, 10 μM) was 0.29. For the same molecule, the “COL1A1 expression (in words)” value [5, 21] was “decreased both PNPLA3 and COL1A1 in HSCs in a dose-dependent manner”, the “Relative mRNA COL1A1” value ([5]; 18 hours) was 0.22 ± 0.01 and the “Relative mRNA MMP2” value [6] was 1.33 ± 0.02. The “Fold change (Log 2) vs untreated” value ([7]; PNPLA3 expression, RNA-seq) was −0.86, the “Primary Hepatocytes 4178 PCSK9 (fold change in mRNA expression)” value [8] was 0.43 and the “Relative PNPLA3 mRNA levels” value ([9]; 1 μM of WYE-125132, human hepatocytes, qRT-PCR, mean of three replicates ± standard deviation) was 0.67 ± 0.09. The “Primary Hepatocytes 4178 PNPLA3 (fold change in mRNA expression)” value [9] was 0.43, the “Primary Hepatocytes 4282 PNPLA3 (fold change in mRNA expression)” value [9] was 0.70 and the “PNPLA3 expression by reported compound specificity (in words)” value ([9]; summary of mTOR/PI3K inhibitor testing) was “did decrease PNPLA3 expression”. For the same molecule, the “Relative mRNA TGFB1” value [10] was 1.10 ± 0.03, the “Primary Stellate cells PNPLA3 (fold change in mRNA expression)” value [11] was 0.54 and the “Relative PNPLA3 mRNA levels RQ” value [11, 20] was 0.44. For the same molecule, the “Relative PNPLA3 mRNA levels RQ” value ([11]; hepatic stellate cells, 0.1 μM) was 0.36, the “Relative PNPLA3 mRNA levels RQ” value ([11]; hepatic stellate cells, 1 μM) was 0.42 and the “Relative PNPLA3 mRNA levels RQ” value ([11]; hepatic stellate cells, 10 μM) was 0.42. For the same molecule, the “PNPLA3 mRNA levels (in words)” value [11, 21] was “decreased both PNPLA3 and COL1A1 in HSCs in a dose-dependent manner” and the “Relative mRNA PNPLA3” value ([11]; 18 hours) was 0.20 ± 0.01.

In the case of C1=C/COCc2cc(ccc2OCCN2CCCC2)Nc2nccc(n2)-c2cccc(c2)COC/1 [Pacritinib], the cytotoxicity / tolerability [12] is reported as “slight cytotoxicity”.

With Cc1nc(NC(=O)N2CCC[C@H]2C(N)=O)sc1-c1ccnc(C(C)(C)C(F)(F)F)c1 [Alpelisib (BYL719), Alpelisib] the “Primary Stellate cells COL1A1 (fold change in mRNA expression)” value [5] was 1.16, the “Primary Hepatocytes 4178 PCSK9 (fold change in mRNA expression)” value [8] was 0.67 and the “PNPLA3 mRNA expression level over time (in words)” value ([9]; 3 μM, normalized to GUSB) was “largely did not change”. The “PNPLA3 mRNA expression level over time (in words)” value ([9]; 3 μM, normalized to GUSB, listed as Alpenisib) was “did not lead to decreased PNPLA3 expression”, the “Primary Hepatocytes 4178 PNPLA3 (fold change in mRNA expression)” value [9] was 0.80 and the “Primary Hepatocytes 4282 PNPLA3 (fold change in mRNA expression)” value [9] was 0.69. For the same molecule, the “PNPLA3 mRNA” value ([9]; human hepatocytes, 3 μM, normalized to GUSB, time point not stated) was 0.971, the p-NDRG1/NDRG1 [13] was 1.11 and the “phosphorylated S6 (pS6/S6) over time (in words)” value [14, 22] was “increased at 2 hours, then decreased”. The pS6/S6 ([14]; human hepatocytes, mTORC1 pathway, time point not stated) was 1.11, the “p4EBP1c (37/46)#/4EBP1c” value [15] was 0.61 and the “Primary Stellate cells PNPLA3 (fold change in mRNA expression)” value [11] was 0.94. For the same molecule, the “phosphorylated AKT (pAKT/AKT) over time (in words)” value [16, 22] was “largely did not change” and the “pAKT (473)/AKT” value ([16]; human hepatocytes, mTORC2 pathway, time point not stated) was 0.34.

For C[C@@]1(C(=O)Nc2ccc(F)nc2)CCCN1c1nc(Nc2cc(C3CC3)[nH]n2)c2cccn2n1 [BMS-754807], the combination index [17] is listed as < 1.0.

In the case of Activin, the “PNPLA3 expression in the RNA-seq study (in words)” value [7] is reported as “best upregulators of PNPLA3 and PNPLA5” and the “PNPLA5 expression in the RNA-seq study (in words)” value [18] is reported as “best upregulators of PNPLA3 and PNPLA5”.

For CC(C)n1nc(-c2ccc3oc(N)nc3c2)c2c(N)ncnc21 [INK-128], the “Relative mRNA COL1A2” value [1] was 0.30 ± 0.01, the “Relative mRNA TIMP2” value [2] was 1.26 ± 0.01 and the “Relative mRNA ACTA2” value [3] was 0.61 ± 0.02. The “Primary Stellate cells COL1A1 (fold change in mRNA expression)” value [5] was 0.47, the “Relative COL1A1 mRNA levels RQ” value [5, 20] was 1.05 and the “Relative COL1A1 mRNA levels RQ” value ([5]; hepatic stellate cells, 0.1 μM) was 0.27. The “Relative COL1A1 mRNA levels RQ” value ([5]; hepatic stellate cells, 1 μM) was 0.32, the “Relative COL1A1 mRNA levels RQ” value ([5]; hepatic stellate cells, 10 μM) was 0.21 and the “Relative mRNA COL1A1” value ([5]; 18 hours) was 0.23 ± 0.01. The “Relative mRNA MMP2” value [6] was 1.53 ± 0.05, the “Primary Hepatocytes 4178 PCSK9 (fold change in mRNA expression)” value [8] was 0.98 and the “Primary Hepatocytes 4178 PNPLA3 (fold change in mRNA expression)” value [9] was 1.50. For the same molecule, the “Primary Hepatocytes 4282 PNPLA3 (fold change in mRNA expression)” value [9] was 1.63, the “Relative mRNA TGFB1” value [10] was 1.20 ± 0.02 and the “Relative PNPLA3 mRNA levels” value [19] was 0.30 ± 0.14. For the same molecule, the “Primary Stellate cells PNPLA3 (fold change in mRNA expression)” value [11] was 0.56, the “Relative PNPLA3 mRNA levels RQ” value [11, 20] was 0.40 and the “Relative PNPLA3 mRNA levels RQ” value ([11]; hepatic stellate cells, 0.1 μM) was 0.28. The “Relative PNPLA3 mRNA levels RQ” value ([11]; hepatic stellate cells, 1 μM) was 0.58, the “Relative PNPLA3 mRNA levels RQ” value ([11]; hepatic stellate cells, 10 μM) was 0.58 and the “Relative mRNA PNPLA3” value ([11]; 18 hours) was 0.28 ± 0.01.

B1: GDF2 (protein, UniProt Q9UK05 320-429, looked up)
Growth/differentiation factor …: SAGAGSHCQKTSLRVNFEDIGWDSWIIAPKEYEAYECKGGCFFPLADDVTPTKHAIVQTLVHLKFPTKVGKACCVPTKLSPISVLYKDDMGVPTLKYHYEGMSVAECGCR
For B1, the “PNPLA3 expression in the RNA-seq study (in words)” value [7] was “best upregulators of PNPLA3 and PNPLA5” and the “PNPLA5 expression in the RNA-seq study (in words)” value [18] was “best upregulators of PNPLA3 and PNPLA5”.
